Calls of active or inactive are those of the source. The rule behind the calls is not given here.
What was measured:
[1] = target: T1, Indoleamine 2,3-dioxygenase 2 (Homo sapiens, UniProt Q6ZQW0); assay: Inhibition of IDO2 (unknown origin) assessed as reduction in kynurenine formation using L-tryptophan as substrate by methylene blue reagent based assay
T1 sequence (Q6ZQW0 whole entry): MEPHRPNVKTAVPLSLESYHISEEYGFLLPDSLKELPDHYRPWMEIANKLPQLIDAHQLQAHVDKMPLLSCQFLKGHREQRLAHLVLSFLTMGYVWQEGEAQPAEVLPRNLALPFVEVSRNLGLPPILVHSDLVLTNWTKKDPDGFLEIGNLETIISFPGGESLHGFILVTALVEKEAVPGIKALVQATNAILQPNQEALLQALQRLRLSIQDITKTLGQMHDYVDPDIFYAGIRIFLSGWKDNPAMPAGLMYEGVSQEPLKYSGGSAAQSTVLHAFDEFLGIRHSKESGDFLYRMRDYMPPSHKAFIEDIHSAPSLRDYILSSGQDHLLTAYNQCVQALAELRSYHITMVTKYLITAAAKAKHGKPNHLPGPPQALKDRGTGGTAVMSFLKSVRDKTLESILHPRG

[2] = Oral bioavailability in Sprague-Dawley rat at 50 mg/kg; format: ADME, organism-based; details: in vivo
[3] = Intrinsic clearance in monkey liver microsomes; format: ADME, Macaca mulatta, Microsome; details: rhesus monkey, read-out: CLH
[4] = Protein binding in ICR mouse plasma assessed as fraction unbound by equilibrium dialysis; format: ADME, cell-free
HCT-116 [5] = assay: Antitumor immunity in BALB/c mouse xenografted with human HCT-116 cells assessed as necrotic Treg cells in tumor-draining lymph nodes by propidium iodide staining based flow cytometry analysis (reference value: 3.91 %); format: functional
HCT-116 [6] = assay: Antitumor immunity in BALB/c mouse xenografted with human HCT-116 cells assessed as induction of apoptosis of CD4+ T-lymphocytes in tumor-draining lymph nodes by propidium iodide staining based flow cytometry analysis (reference value: 21.9 %); format: functional
[7] = target: Tyrosine-protein kinase ABL1 (Homo sapiens) (UniProt P00519); assay: Inhibition of ABL1 (unknown origin) at 1 uM
[8] = target: Mast/stem cell growth factor receptor Kit (Homo sapiens) (UniProt P10721); assay: Inhibition of c-KIT (unknown origin) at 1 uM
[9] = target: Calcium/calmodulin-dependent protein kinase type IV (Homo sapiens) (UniProt Q16566); assay: Inhibition of CAMK4 (unknown origin) at 1 uM
[10] = target: Serine/threonine-protein kinase Chk2 (Homo sapiens) (UniProt O96017); assay: Inhibition of CHK2 (unknown origin) at 1 uM
[11] = target: Casein kinase I isoform alpha-like (Homo sapiens) (UniProt Q8N752); assay: Inhibition of CK1a1L (unknown origin) at 1 uM
[12] = target: Dual specificity protein kinase CLK2 (Homo sapiens) (UniProt P49760); assay: Inhibition of CLK2 (unknown origin) at 1 uM
[13] = target: Mitogen-activated protein kinase kinase kinase 12 (Homo sapiens) (UniProt Q12852); assay: Inhibition of DLK (unknown origin) at 1 uM
[14] = target: Myotonin-protein kinase (Homo sapiens) (UniProt Q09013); assay: Inhibition of DMPK (unknown origin) at 1 uM
[15] = target: Ephrin type-A receptor 6 (Homo sapiens) (UniProt Q9UF33); assay: Inhibition of EPHA6 (unknown origin) at 1 uM
[16] = target: Ephrin type-A receptor 7 (Homo sapiens) (UniProt Q15375); assay: Inhibition of EPHA7 (unknown origin) at 1 uM
[17] = target: Ephrin type-B receptor 1 (Homo sapiens) (UniProt P54762); assay: Inhibition of EPHB1 (unknown origin) at 1 uM
[18] = target: Focal adhesion kinase 1 (Homo sapiens) (UniProt Q05397); assay: Inhibition of FAK (unknown origin) at 1 uM
[19] = target: Tyrosine-protein kinase FRK (Homo sapiens) (UniProt P42685); assay: Inhibition of FRK (unknown origin) at 1 uM
[20] = target: Glycogen synthase kinase-3 beta (Homo sapiens) (UniProt P49841); assay: Inhibition of GSK3B (unknown origin) at 1 uM
[21] = target: Tyrosine-protein kinase JAK1 (Homo sapiens) (UniProt P23458); assay: Inhibition of JAK1 (unknown origin) at 1 uM
[22] = target: Vascular endothelial growth factor receptor 2 (Homo sapiens) (UniProt P35968); assay: Inhibition of KDR (unknown origin) at 1 uM
[23] = target: Kinase suppressor of Ras 2 (Homo sapiens) (UniProt Q6VAB6); assay: Inhibition of KSR2 (unknown origin) at 1 uM
[24] = target: Serine/threonine-protein kinase ICK (Homo sapiens) (UniProt Q9UPZ9); assay: Inhibition of LCK2 (unknown origin) at 1 uM
[25] = target: Serine/threonine-protein kinase 10 (Homo sapiens) (UniProt O94804); assay: Inhibition of LOK (unknown origin) at 1 uM
[26] = target: Serine/threonine-protein kinase MARK1 (Homo sapiens) (UniProt Q9P0L2); assay: Inhibition of MARK1 (unknown origin) at 1 uM
[27] = target: MAP/microtubule affinity-regulating kinase 4 (Homo sapiens) (UniProt Q96L34); assay: Inhibition of MARK4 (unknown origin) at 1 uM
[28] = target: Misshapen-like kinase 1 (Homo sapiens) (UniProt Q8N4C8); assay: Inhibition of MINK1 (unknown origin) at 1 uM
[29] = target: Mitogen-activated protein kinase kinase kinase 21 (Homo sapiens) (UniProt Q5TCX8); assay: Inhibition of MLK4 (unknown origin)at 1 uM
[30] = target: Serine/threonine-protein kinase Nek8 (Homo sapiens) (UniProt Q86SG6); assay: Inhibition of NEK8 (unknown origin) at 1 uM
[31] = target: PAS domain-containing serine/threonine-protein kinase (Homo sapiens) (UniProt Q96RG2); assay: Inhibition of PASK (unknown origin) at 1 uM
[32] = target: Inactive tyrosine-protein kinase PEAK1 (Homo sapiens) (UniProt Q9H792); assay: Inhibition of PEAK1 (unknown origin) at 1 uM
[33] = target: cAMP-dependent protein kinase catalytic subunit alpha (Homo sapiens) (UniProt P17612); assay: Inhibition of PKA (unknown origin) at 1 uM
[34] = target: Serine/threonine-protein kinase D3 (Homo sapiens) (UniProt O94806); assay: Inhibition of PKCnu (unknown origin) at 1 uM
[35] = target: Protein kinase C theta type (Homo sapiens) (UniProt Q04759); assay: Inhibition of PKCtheta (unknown origin) at 1 uM
[36] = target: RAF proto-oncogene serine/threonine-protein kinase (Homo sapiens) (UniProt P04049); assay: Inhibition of RAF1 (unknown origin) at 1 uM
[37] = target: Serine/threonine-protein kinase 38-like (Homo sapiens) (UniProt Q9Y2H1); assay: Inhibition of STK38L (unknown origin) at 1 uM
[38] = target: Tyrosine-protein kinase SYK (Homo sapiens) (UniProt P43405); assay: Inhibition of SYK (unknown origin) at 1 uM
[39] = target: Leukocyte tyrosine kinase receptor (Homo sapiens) (UniProt P29376); assay: Inhibition of TYK1 (unknown origin) at 1 uM
Sequence of Leukocyte tyrosine kinase receptor (Homo sapiens) (P29376 whole entry): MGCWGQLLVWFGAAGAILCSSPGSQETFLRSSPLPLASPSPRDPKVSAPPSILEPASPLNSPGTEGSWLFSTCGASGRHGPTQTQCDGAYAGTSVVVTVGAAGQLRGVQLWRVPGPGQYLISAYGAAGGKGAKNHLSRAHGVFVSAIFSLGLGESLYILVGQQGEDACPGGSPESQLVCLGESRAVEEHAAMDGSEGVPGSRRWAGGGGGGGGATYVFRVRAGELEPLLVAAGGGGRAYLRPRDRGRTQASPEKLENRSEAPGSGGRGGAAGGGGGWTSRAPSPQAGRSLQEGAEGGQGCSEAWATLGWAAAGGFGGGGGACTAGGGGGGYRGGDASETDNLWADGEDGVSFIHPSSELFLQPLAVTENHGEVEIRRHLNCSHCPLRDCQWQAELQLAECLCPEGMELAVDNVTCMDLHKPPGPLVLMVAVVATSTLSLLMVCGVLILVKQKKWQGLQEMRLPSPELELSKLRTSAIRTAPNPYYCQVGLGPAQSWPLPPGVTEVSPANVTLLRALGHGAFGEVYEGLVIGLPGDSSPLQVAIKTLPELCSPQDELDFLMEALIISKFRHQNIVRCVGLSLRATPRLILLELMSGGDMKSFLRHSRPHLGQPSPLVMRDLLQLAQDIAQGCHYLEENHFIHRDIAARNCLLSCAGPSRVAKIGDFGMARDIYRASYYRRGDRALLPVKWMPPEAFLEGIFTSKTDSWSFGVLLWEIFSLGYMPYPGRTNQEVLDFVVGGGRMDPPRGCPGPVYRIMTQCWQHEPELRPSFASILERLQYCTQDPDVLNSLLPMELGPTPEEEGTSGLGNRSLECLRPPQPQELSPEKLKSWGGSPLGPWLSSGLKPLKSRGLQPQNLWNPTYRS

Sequence of Tyrosine-protein kinase FRK (Homo sapiens) (P42685 whole entry): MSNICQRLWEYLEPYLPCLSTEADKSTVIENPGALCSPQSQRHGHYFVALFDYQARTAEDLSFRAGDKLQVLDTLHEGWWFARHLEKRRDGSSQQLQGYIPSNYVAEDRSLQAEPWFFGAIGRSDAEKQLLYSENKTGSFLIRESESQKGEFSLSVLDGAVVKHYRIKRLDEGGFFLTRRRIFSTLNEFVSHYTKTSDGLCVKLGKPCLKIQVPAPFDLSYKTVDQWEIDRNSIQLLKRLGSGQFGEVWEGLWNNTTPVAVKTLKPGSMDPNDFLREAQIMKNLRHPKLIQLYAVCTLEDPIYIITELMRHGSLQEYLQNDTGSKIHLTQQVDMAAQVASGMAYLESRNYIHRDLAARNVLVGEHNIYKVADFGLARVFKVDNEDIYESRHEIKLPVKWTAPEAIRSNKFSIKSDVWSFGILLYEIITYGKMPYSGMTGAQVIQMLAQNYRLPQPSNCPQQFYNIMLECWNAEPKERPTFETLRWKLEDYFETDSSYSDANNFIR
Sequence of Dual specificity protein kinase CLK2 (Homo sapiens) (P49760 whole entry, looked up): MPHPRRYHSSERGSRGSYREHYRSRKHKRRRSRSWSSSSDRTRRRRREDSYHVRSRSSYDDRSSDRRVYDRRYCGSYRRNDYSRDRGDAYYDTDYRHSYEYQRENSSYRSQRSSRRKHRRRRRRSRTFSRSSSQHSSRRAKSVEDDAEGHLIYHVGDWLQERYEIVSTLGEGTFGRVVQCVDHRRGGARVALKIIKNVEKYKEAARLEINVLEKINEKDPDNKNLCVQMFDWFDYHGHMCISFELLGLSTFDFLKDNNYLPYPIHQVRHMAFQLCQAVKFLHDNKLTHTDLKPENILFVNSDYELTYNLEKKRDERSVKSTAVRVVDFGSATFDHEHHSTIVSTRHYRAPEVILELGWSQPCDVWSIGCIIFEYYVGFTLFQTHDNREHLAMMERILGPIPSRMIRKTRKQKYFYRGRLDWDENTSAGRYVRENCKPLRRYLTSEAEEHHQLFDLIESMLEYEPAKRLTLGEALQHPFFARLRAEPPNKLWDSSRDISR
Sequence of PAS domain-containing serine/threonine-protein kinase (Homo sapiens) (Q96RG2 whole entry, the tested form may be a part): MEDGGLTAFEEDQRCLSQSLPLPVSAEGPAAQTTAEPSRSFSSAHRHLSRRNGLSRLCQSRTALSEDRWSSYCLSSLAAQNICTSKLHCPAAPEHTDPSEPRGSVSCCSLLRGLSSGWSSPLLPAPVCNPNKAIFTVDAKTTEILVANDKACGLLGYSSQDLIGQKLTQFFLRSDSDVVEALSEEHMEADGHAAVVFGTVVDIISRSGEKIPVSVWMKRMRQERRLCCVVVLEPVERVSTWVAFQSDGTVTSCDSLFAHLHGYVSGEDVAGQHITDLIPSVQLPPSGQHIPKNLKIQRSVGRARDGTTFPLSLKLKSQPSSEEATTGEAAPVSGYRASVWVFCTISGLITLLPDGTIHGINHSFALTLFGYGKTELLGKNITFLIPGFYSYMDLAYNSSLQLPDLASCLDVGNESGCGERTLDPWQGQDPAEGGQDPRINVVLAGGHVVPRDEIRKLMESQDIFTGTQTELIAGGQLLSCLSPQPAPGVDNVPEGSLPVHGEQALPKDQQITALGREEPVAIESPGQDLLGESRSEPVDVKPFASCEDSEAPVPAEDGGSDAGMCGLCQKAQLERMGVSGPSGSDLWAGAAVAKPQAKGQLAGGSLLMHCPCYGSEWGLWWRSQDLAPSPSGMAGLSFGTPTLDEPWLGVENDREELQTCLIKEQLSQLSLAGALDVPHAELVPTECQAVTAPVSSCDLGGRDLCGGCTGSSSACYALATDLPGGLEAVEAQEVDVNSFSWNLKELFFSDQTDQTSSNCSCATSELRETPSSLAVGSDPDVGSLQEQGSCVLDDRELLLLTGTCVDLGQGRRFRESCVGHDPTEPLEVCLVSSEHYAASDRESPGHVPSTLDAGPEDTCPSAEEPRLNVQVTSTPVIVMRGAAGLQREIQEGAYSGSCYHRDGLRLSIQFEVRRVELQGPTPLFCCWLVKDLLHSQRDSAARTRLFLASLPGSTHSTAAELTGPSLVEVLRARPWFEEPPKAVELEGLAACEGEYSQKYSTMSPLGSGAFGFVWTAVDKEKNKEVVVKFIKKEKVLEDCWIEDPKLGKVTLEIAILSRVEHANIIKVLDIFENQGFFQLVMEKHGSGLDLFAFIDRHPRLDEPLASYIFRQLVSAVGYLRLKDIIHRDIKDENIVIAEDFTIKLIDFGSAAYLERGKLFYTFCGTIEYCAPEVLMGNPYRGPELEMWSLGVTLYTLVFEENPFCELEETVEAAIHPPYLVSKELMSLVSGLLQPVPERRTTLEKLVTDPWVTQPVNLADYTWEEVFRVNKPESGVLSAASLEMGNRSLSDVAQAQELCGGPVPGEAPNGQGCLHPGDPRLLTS
Sequence of Serine/threonine-protein kinase 38-like (Homo sapiens) (Q9Y2H1 2-464 limits assumed): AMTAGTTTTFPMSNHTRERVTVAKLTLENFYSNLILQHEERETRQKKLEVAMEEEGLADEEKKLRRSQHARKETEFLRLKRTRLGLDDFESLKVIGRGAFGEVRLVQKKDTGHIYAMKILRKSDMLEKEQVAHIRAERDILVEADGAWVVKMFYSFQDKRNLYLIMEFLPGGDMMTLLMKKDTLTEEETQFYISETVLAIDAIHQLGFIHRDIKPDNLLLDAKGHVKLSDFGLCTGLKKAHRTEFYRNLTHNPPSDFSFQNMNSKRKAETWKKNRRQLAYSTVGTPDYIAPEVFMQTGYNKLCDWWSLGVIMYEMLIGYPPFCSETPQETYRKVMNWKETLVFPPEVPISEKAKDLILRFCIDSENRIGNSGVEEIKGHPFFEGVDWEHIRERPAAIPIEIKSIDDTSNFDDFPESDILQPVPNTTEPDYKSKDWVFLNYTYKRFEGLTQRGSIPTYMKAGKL
Sequence of RAF proto-oncogene serine/threonine-protein kinase (Homo sapiens) (P04049 whole entry): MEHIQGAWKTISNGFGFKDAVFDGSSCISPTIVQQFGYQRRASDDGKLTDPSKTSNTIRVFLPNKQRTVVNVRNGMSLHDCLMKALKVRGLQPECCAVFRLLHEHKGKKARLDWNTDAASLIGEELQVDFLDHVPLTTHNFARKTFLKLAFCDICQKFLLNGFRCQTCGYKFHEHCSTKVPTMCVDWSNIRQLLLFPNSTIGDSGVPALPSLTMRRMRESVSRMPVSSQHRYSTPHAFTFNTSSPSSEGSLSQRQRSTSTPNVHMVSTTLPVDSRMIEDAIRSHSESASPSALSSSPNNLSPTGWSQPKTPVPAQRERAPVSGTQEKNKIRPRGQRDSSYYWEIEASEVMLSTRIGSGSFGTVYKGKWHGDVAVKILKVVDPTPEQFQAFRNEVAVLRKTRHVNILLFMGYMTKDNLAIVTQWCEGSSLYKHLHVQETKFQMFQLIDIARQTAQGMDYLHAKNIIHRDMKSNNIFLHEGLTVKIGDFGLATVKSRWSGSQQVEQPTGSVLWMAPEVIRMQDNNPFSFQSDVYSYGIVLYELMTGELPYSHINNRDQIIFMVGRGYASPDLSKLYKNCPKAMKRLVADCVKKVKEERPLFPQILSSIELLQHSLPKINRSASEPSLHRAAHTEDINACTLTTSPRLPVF
Sequence of Serine/threonine-protein kinase Nek8 (Homo sapiens) (Q86SG6 whole entry, the tested form may be a part): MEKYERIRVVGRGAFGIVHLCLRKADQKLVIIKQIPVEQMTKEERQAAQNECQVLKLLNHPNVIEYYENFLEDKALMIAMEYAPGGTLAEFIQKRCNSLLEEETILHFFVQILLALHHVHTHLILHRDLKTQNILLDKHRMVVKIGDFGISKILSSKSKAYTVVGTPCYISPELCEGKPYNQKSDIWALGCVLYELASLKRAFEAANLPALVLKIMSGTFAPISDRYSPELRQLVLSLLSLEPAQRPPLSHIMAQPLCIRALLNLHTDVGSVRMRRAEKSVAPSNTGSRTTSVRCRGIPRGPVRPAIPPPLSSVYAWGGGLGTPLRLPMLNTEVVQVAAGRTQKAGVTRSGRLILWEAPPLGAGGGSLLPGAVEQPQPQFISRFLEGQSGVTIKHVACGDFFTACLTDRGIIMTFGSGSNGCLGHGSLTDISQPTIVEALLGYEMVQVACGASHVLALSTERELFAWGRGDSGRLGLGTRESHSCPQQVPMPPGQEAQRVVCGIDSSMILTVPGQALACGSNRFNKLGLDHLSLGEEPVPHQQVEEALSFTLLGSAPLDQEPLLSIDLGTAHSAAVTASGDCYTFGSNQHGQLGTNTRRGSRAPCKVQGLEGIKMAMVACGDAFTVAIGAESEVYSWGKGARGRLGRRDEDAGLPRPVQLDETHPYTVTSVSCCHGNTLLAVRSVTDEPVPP

Work on `OCCOCc1cn(CCNc2nonc2/C(=N/O)Nc2ccc(F)c(Br)c2)nn1` yielded an IC50 [1] of 144 nM, a bioavailability [2] of 12% and a microsomal CLint [3] of 36 µL/min/mg. The fraction unbound [4] was 0.0968, the Activity (HCT-116 [5]) was 0.73% and the Activity (HCT-116 [6]) was 8.83%. The inhibition [7] was “inactive”, the inhibition [8] was “inactive” and the inhibition [9] was “inactive”. The inhibition [10] was “inactive”, the inhibition [11] was “inactive” and the inhibition [12] was “inactive”. The inhibition [13] was “inactive”, the inhibition [14] was “inactive” and the inhibition [15] was “inactive”. The inhibition [16] was “inactive”, the inhibition [17] was “inactive” and the inhibition [18] was “inactive”. The inhibition [19] was “inactive”, the inhibition [20] was “inactive” and the inhibition [21] was “inactive”. For the same compound, the inhibition [22] was “inactive”, the inhibition [23] was “inactive” and the inhibition [24] was “inactive”. The inhibition [25] was “inactive”, the inhibition [26] was “inactive” and the inhibition [27] was “inactive”. For the same compound, the inhibition [28] was “inactive”, the inhibition [29] was “inactive” and the inhibition [30] was “inactive”. For the same compound, the inhibition [31] was “inactive”, the inhibition [32] was “inactive” and the inhibition [33] was “inactive”. The inhibition [34] was “inactive”, the inhibition [35] was “inactive” and the inhibition [36] was “inactive”. The inhibition [37] was “inactive”, the inhibition [38] was “inactive” and the inhibition [39] was “inactive”.

Source: ChEMBL document CHEMBL5055685, “Discovery of the First Potent IDO1/IDO2 Dual Inhibitors: A Promising Strategy for Cancer Immunotherapy” (J Med Chem, 2021)
